Calls of active or inactive are those of the source. The calls are words filed in the database; no cut-off is given here.
Columns and labels:
SW-620 [1] = assay: Cytotoxicity against human SW620 cells assessed as cell viability after 48 hrs by MTT assay; type: cell-based; details: SW-620, 48 h
[2] = Cytotoxicity against human SW620/AD300 cells assessed as cell viability after 48 hrs by MTT assay; type: cell-based; details: SW-620, 48 h
HCT-116 = assay: Cytotoxicity against human HCT116 cells assessed as cell viability after 48 hrs by MTT assay; type: cell-based; details: HCT-116, 48 h
[3] = Cytotoxicity against human HFE cells assessed as cell viability after 72 hrs by MTT assay; type: cell-based
[4] = target: Multidrug resistance-associated protein 1 (Homo sapiens, UniProt P33527); assay: Inhibition of MRP1 (unknown origin)-mediated calcein-AM efflux expressed in HEK293/MRP1 cells at 0.5 uM after 1 hr by flow cytometry; type: cell-based; details: hek293/mrp1, 1 h
Multidrug resistance-associated protein 1, sequence (P33527 whole entry): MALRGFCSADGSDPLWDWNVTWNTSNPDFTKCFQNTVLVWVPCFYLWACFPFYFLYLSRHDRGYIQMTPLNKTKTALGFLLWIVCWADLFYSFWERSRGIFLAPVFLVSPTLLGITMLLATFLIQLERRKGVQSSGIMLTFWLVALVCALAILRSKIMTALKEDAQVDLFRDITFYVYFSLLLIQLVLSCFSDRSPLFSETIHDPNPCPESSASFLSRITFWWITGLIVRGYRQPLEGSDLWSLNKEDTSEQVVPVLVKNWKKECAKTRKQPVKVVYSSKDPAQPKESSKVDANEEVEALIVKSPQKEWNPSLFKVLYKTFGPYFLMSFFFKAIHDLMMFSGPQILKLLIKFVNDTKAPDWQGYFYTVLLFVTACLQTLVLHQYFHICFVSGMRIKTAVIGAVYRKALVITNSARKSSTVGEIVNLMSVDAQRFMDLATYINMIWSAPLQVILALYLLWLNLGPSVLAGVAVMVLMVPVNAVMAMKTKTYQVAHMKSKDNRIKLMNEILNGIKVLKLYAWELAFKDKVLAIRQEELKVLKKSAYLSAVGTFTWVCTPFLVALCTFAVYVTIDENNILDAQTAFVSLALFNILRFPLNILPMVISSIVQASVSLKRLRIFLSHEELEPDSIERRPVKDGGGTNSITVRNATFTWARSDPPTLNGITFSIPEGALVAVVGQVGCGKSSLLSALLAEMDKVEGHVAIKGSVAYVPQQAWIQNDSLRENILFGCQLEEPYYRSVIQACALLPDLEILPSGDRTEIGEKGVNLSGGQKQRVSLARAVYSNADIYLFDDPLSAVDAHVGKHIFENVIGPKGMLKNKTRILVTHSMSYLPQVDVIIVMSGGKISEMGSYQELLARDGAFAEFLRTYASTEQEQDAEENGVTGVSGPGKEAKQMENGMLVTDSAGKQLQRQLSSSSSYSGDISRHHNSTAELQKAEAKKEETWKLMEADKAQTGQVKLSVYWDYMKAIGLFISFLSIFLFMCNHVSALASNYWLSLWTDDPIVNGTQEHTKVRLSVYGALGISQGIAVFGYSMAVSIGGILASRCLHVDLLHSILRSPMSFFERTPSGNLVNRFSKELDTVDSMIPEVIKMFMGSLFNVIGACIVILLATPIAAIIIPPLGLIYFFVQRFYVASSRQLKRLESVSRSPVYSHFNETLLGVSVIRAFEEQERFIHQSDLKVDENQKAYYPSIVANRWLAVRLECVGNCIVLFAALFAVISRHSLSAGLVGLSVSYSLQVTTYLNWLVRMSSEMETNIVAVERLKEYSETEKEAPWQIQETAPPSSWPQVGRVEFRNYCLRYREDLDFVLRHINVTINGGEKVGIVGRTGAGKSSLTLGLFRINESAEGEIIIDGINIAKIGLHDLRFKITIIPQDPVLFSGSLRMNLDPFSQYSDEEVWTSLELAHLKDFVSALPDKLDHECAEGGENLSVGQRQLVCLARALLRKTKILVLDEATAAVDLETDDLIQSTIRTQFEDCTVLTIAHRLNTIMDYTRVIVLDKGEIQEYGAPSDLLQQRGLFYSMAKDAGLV

[5] = Cytotoxicity against human CCD-18Co cells assessed as cell viability after 48 hrs by MTT assay; type: cell-based
Hepatocyte = assay: Cytotoxicity against rat hepatocytes assessed as cell viability after 72 hrs by MTT assay; type: cell-based; details: for IC50: Rattus norvegicus, Hepatocyte
SW-620 [6] = assay: Cytotoxicity against human SW620 cells at 200 nM after 72 hrs by SRB assay; type: cell-based; details: sw-620, 72 h, 0.2 µM
[7] = target: T1, ATP-dependent translocase ABCB1 (Homo sapiens, UniProt P08183); assay: Inhibition of p-glycoprotein in human HepG2 cells assessed as increase of doxorubicin-induced cytotoxicity at 200 nM after 72 hrs by SRB assay relative to control; type: cell-based; details: hepg2, 72 h, 0.2 µM
T1 sequence (P08183 whole entry): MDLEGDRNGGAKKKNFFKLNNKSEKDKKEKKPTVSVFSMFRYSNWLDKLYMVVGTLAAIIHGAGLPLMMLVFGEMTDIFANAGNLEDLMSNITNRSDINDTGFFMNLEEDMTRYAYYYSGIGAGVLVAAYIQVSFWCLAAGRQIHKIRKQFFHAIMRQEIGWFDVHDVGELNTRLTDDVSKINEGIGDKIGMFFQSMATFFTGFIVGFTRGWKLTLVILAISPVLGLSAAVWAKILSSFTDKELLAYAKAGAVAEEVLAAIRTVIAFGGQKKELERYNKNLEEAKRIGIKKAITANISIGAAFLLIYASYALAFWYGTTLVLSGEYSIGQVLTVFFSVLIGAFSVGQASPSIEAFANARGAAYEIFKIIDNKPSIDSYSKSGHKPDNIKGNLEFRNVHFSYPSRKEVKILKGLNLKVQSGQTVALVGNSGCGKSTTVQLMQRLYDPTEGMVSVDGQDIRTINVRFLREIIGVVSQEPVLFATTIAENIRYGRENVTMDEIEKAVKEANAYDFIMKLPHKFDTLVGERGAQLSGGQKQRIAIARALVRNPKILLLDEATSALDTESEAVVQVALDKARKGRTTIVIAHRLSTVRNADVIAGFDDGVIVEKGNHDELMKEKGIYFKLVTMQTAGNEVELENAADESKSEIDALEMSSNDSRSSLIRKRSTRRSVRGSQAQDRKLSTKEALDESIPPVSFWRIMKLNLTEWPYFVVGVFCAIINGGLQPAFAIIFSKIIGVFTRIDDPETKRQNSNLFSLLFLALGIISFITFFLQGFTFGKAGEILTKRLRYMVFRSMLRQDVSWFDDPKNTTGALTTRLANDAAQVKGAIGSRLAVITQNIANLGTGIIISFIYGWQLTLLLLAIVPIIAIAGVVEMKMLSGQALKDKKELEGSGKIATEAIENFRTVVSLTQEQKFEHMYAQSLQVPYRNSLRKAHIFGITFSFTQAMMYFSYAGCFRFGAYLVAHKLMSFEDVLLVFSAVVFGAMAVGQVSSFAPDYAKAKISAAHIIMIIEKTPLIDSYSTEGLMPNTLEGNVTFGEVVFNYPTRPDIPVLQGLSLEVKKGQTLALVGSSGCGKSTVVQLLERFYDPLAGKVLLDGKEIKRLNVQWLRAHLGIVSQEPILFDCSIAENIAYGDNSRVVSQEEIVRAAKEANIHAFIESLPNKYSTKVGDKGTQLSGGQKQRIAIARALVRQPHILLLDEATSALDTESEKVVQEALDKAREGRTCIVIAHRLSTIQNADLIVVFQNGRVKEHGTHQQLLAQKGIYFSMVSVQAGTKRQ

[8] = target: T2, Broad substrate specificity ATP-binding cassette transporter ABCG2 (Homo sapiens, UniProt Q9UNQ0); assay: Inhibition of BCRP in human MCF-7 FLV1000 cells assessed as increase of mitoxantrone-induced cytotoxicity at 200 nM after 72 hrs by SRB assay relative to control; type: cell-based; details: 0.2 µM
T2 sequence (Q9UNQ0 whole entry): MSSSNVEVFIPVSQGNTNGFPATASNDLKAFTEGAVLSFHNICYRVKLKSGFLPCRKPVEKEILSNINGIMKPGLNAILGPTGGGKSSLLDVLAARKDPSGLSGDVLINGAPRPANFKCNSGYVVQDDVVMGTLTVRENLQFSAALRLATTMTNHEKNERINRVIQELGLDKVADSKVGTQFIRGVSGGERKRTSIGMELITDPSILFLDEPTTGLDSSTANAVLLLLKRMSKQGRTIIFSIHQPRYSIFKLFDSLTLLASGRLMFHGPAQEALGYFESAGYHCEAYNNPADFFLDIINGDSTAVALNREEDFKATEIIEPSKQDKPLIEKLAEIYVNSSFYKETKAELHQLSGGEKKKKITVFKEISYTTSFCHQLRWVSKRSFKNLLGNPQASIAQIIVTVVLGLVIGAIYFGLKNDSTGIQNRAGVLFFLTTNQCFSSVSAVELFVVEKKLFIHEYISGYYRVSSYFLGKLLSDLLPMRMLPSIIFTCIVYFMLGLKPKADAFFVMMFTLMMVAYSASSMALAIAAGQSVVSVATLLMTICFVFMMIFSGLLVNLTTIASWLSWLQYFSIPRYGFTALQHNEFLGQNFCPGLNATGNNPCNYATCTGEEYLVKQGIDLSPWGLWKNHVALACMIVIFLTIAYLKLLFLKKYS

SW-620 [9] = assay: Potentiation of doxorubicin-induced cytotoxicity against human SW620 cells at 200 nM after 72 hrs by SRB assay relative to control; type: functional
HepG2 [10] = assay: Cytotoxicity against human HepG2 cells at 200 nM after 72 hrs by SRB assay; type: cell-based; details: hepg2, 72 h, 0.2 µM
HepG2 [11] = assay: Cytotoxicity against human HepG2 cells expressing p-glycoprotein at 200 nM after 72 hrs by SRB assay; type: cell-based; details: hepg2, 72 h, 0.2 µM
[12] = Cytotoxicity against human LCC6 cells expressing p-glycoprotein at 200 nM after 72 hrs by SRB assay; type: cell-based; details: lcc6, 72 h, 0.2 µM
MCF7 [13] = assay: Cytotoxicity against human MCF7 cells at 200 nM after 72 hrs by SRB assay; type: cell-based; details: mcf7, 72 h, 0.2 µM
[14] = target: T1, ATP-dependent translocase ABCB1; assay: Inhibition of p-glycoprotein in human LCC6/MDR cells assessed as increase of paclitaxel-induced cytotoxicity at 200 nM after 72 hrs by SRB assay relative to control; type: cell-based; details: 0.2 µM
[15] = Cytotoxicity against human LCC6 cells at 200 nM after 72 hrs by SRB assay; type: cell-based; details: lcc6, 72 h, 0.2 µM
MCF7 [16] = assay: Potentiation of mitoxantrone-induced cytotoxicity against human MCF7 cells at 200 nM after 72 hrs by SRB assay relative to control; type: functional
[17] = Cytotoxicity against human MCF-7 FLV1000 cells expressing BCRP at 200 nM after 72 hrs by SRB assay; type: ADME, cell-based; details: mcf-7 flv1000, 72 h, 0.2 µM
HepG2 [18] = assay: Potentiation of doxorubicin-induced cytotoxicity against human HepG2 cells at 200 nM after 72 hrs by SRB assay relative to control; type: functional
[19] = Potentiation of paclitaxel-induced cytotoxicity against human LCC6 cells at 200 nM after 72 hrs by SRB assay relative to control; type: functional
[20] = Cytotoxicity against human SW620/AD300 cells expressing p-glycoprotein at 200 nM after 72 hrs by SRB assay; type: cell-based; details: sw-620, 72 h, 0.2 µM
[21] = target: T1, ATP-dependent translocase ABCB1; assay: Inhibition of p-glycoprotein in human SW620/AD300 cells assessed as increase of doxorubicin-induced cytotoxicity at 200 nM after 72 hrs by SRB assay relative to control; type: cell-based; details: sw-620, 72 h, 0.2 µM
[22] = target: T2, Broad substrate specificity ATP-binding cassette transporter ABCG2; assay: Induction of 5D3 antibody binding to BCRP in human K562 cells at 0.5 uM preincubated for 10 mins followed by antibody addition measured after 45 mins by flow cytometry relative to tariquidar; type: cell-based; details: k562, 0.75 h
K562 [23] = assay: Induction of UIC2 antibody binding to p-glycoprotein in human K562 cells at 0.5 uM preincubated for 10 mins followed by antibody addition measured after 45 mins by flow cytometry relative to tariquidar; type: cell-based
[24] = target: T1, ATP-dependent translocase ABCB1; assay: Inhibition of p-glycoprotein-mediated rhodamine-123 efflux in human K562/p-gp cells at 0.5 uM after 1 hr by flow cytometry relative to tariquidar; type: cell-based; details: 1 h, 0.5 µM
K562 [25] = assay: Effect on rhodamine-123 efflux in wild type human K562 cells at 0.5 uM after 1 hr by flow cytometry; type: ADME, cell-based; details: k562, 1 h
[26] = target: T1, ATP-dependent translocase ABCB1; assay: Inhibition of p-glycoprotein-mediated doxorubicin efflux in human K562/p-gp cells at 1 uM after 1 hr by flow cytometry; type: cell-based
[27] = target: T1, ATP-dependent translocase ABCB1; assay: Inhibition of p-glycoprotein-mediated rhodamine-123 efflux in human K562/p-gp cells after 1 hr by flow cytometry; type: cell-based
Homo sapiens = species on record: Homo sapiens; assay: Inhibition of p-glycoprotein (unknown origin) expressed in High five insect cell membranes assessed as ATP hydrolysis after 20 mins by colorimetric ATPase assay

SMILES	IC50 (SW-620 [1])	IC50 [2]	IC50 (HCT-116)	IC50 [3]	inhibition (INH) [4]	IC50 [5]	IC50 (Hepatocyte)	other results
COc1cc2c(cc1OC)CN(CCc1ccc(NC(=O)c3ccccc3NS(=O)(=O)c3ccc(F)cc3)cc1)CC2	> 100 µM	> 100 µM	> 100 µM	> 100 µM	Not Active	> 100 µM	–	–
COc1cc2c(cc1OC)CN(CCc1ccc(NC(=O)c3ccccc3NS(=O)(=O)c3ccc(NC(C)=O)cc3)cc1)CC2	> 100 µM	> 100 µM	> 100 µM	> 100 µM	Not Active	> 100 µM	–	–
COc1cc2c(cc1OC)CN(CCc1ccc(NC(=O)c3ccccc3NC(=O)OCC3c4ccccc4-c4ccccc43)cc1)CC2	> 100 µM	> 100 µM	> 100 µM	> 100 µM	Not Active	> 100 µM	–	–
COc1cc2c(cc1OC)CN(CCc1ccc(NC(=O)c3ccccc3NS(=O)(=O)c3cccc4c(N(C)C)cccc34)cc1)CC2	> 100 µM	> 100 µM	> 100 µM	> 100 µM	Not Active	> 100 µM	–	–
COc1cc2c(cc1OC)CN(CCc1ccc(NC(=O)c3ccccc3NS(=O)(=O)c3c(C)cc(C)cc3C)cc1)CC2	> 100 µM	> 100 µM	> 100 µM	> 100 µM	Not Active	> 100 µM	100 µM	–
COc1cc2c(cc1OC)CN(CCc1ccc(NC(=O)c3ccccc3NS(=O)(=O)c3ccccc3C(F)(F)F)cc1)CC2	> 100 µM	> 100 µM	> 100 µM	> 100 µM	Not Active	> 100 µM	100 µM	–
COc1cc2c(cc1OC)CN(CCc1ccc(NC(=O)c3ccccc3NS(=O)(=O)c3ccc(C(F)(F)F)cc3)cc1)CC2	> 100 µM	> 100 µM	25 µM	> 100 µM	Not Active	> 100 µM	50 µM	–
COc1cc2c(cc1OC)CN(CCc1ccc(NC(=O)c3ccccc3NS(=O)(=O)c3ccccc3F)cc1)CC2	> 100 µM	> 100 µM	> 100 µM	> 100 µM	Not Active	> 100 µM	100 µM	–
COc1cc2c(cc1OC)CN(CCc1ccc(NC(=O)c3ccccc3NS(=O)(=O)c3ccc(Cl)cc3)cc1)CC2	> 100 µM	> 100 µM	> 100 µM	> 5 µM	–	> 100 µM	–	–
COc1cc2c(cc1OC)CN(CCc1ccc(NC(=O)c3ccccc3NS(=O)(=O)c3cc(Cl)ccc3Cl)cc1)CC2	> 100 µM	> 100 µM	25 µM	> 100 µM	Not Active	> 100 µM	–	–
COc1cc2c(cc1OC)CN(CCc1ccc(NC(=O)c3cc(OC)c(OC)cc3NC(=O)c3cnc4ccccc4c3)cc1)CC2 [TARIQUIDAR]	25 µM	25 µM	12.5 µM	1.28 µM	Not Active	25 µM	25 µM	Activity (SW-620 [6]): Non-toxic; fold change (FC) [7]: 0.32; fold change (FC) [8]: 3.7; fold change (FC) (SW-620 [9]): 0.57; Activity (HepG2 [10]): Non-toxic; Activity (HepG2 [11]): Non-toxic; Activity [12]: Non-toxic; Activity (MCF7 [13]): Non-toxic; fold change (FC) [14]: 1.9; Activity [15]: Non-toxic; fold change (FC) (MCF7 [16]): 0.8; Activity [17]: Non-toxic; fold change (FC) (HepG2 [18]): 0.23; fold change (FC) [19]: 1.1; Activity [20]: Non-toxic; fold change (FC) [21]: 1.85
COc1cc2c(cc1OC)CN(CCc1ccc(NC(=O)c3cc(OC)c(OC)cc3NS(=O)(=O)c3ccc(C)cc3)cc1)CC2	> 100 µM	> 100 µM	> 100 µM	> 100 µM	Not Active	> 100 µM	100 µM	–
COc1ccc(S(=O)(=O)Nc2ccccc2C(=O)Nc2ccc(CCN3CCc4cc(OC)c(OC)cc4C3)cc2)cc1	> 100 µM	> 100 µM	> 100 µM	> 100 µM	Not Active	> 100 µM	–	–
COc1cc2c(cc1OC)CN(CCc1ccc(NC(=O)c3ccccc3NS(=O)(=O)c3ccc(C)cc3)cc1)CC2	> 100 µM	> 100 µM	> 100 µM	> 100 µM	Not Active	> 100 µM	–	Activity [22]: Not Active; Activity (K562 [23]): inactive
CCCS(=O)(=O)Nc1ccccc1C(=O)Nc1ccc(CCN2CCc3cc(OC)c(OC)cc3C2)cc1	> 100 µM	> 100 µM	> 100 µM	> 100 µM	Not Active	> 100 µM	–	–
CCCCCCCCCCCC(=O)Nc1ccccc1C(=O)Nc1ccc(CCN2CCc3cc(OC)c(OC)cc3C2)cc1	> 100 µM	> 100 µM	> 100 µM	> 100 µM	Not Active	> 100 µM	–	–
COc1cc2c(cc1OC)CN(CCc1ccc(NC(=O)c3ccccc3N(S(=O)(=O)c3ccccc3)S(=O)(=O)c3ccccc3)cc1)CC2	> 100 µM	> 100 µM	> 100 µM	> 5 µM	Not Active	> 100 µM	–	inhibition (INH) [24]: Active; Activity (K562 [25]): Non-toxic; inhibition (INH) [26]: Active; Activity (Hepatocyte; rat, hepatocytes): Non-toxic; inhibition (INH) [27]: Dose-dependent effect
COc1cc2c(cc1OC)CN(CCc1ccc(NC(=O)c3cc(OC)c(OC)cc3NS(=O)(=O)c3ccc(C(C)(C)C)cc3)cc1)CC2	> 100 µM	> 100 µM	> 100 µM	> 5 µM	Not Active	> 100 µM	–	inhibition (INH) [24]: Active; Activity (K562 [25]): Non-toxic; Activity [12]: Non-toxic; fold change (FC) [14]: 21; Activity [15]: Non-toxic; inhibition (Homo sapiens): Dose-dependent effect; Activity (K562 [23]): 70.7%; inhibition (INH) [27]: Dose-dependent effect; fold change (FC) [19]: 1
COc1cc2c(cc1OC)CN(CCc1ccc(NC(=O)c3cc(OC)c(OC)cc3NS(=O)(=O)c3ccc(C(F)(F)F)cc3)cc1)CC2	> 100 µM	> 100 µM	25 µM	> 100 µM	Not Active	> 100 µM	50 µM	–
